From ChEMBL document CHEMBL4229492, “Design, Synthesis, and Biological Evaluation of Novel 7-[(3 aS,7 aS)-3 a-Aminohexahydropyrano[3,4- c]pyrrol-2(3 H)-yl]-8-methoxyquinolines with Potent Antibacterial Activity against Respiratory Pathogens” (J Med Chem, 2018)
In brackets after ≈: the same amount, converted by molar mass. Activity calls are given as the source filed them. The rule behind the calls is not given here.

What was measured:
CYP3A4 = CYP3A4 (Homo sapiens, UniProt P08684); assay: Inhibition of CYP3A4 in human liver microsomes at 10 uM assessed as remaining activity by measuring 1'-hydroxylation of midazolam after 30 mins; assay type: ADME; details: probe midazolam (1'-hydroxylation), read-out: Activity
Chain of CYP3A4 (P08684 whole entry): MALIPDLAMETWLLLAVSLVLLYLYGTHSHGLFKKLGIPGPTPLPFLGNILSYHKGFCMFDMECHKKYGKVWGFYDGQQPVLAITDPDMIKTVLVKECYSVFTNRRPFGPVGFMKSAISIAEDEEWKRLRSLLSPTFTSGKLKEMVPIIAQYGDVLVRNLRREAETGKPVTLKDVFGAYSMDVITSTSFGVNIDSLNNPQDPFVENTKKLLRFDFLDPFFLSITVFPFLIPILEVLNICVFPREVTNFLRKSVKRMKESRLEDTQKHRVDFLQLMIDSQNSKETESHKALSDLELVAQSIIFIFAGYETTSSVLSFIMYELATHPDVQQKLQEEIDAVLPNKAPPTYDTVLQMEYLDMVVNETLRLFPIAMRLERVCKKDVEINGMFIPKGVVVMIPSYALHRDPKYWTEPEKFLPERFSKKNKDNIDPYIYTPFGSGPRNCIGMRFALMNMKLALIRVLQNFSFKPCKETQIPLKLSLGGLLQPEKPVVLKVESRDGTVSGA

Streptococcus pneumoniae [1] = assay: (§1) In vivo antibacterial activity against quinolone-sensitive and penicillin-resistant Streptococcus pneumoniae 033806 infected in CBA/JNCrj mouse assessed as reduction in bacterial count at 10 to 40 mg/kg, sc administered twice per day starting from 1 day after infection and measured on day after final dose; assay type: functional, organism-based
Staphylococcus aureus [2] = assay: Antibacterial activity against Staphylococcus aureus SMITH after 18 hrs by two-fold microbroth dilution method; assay type: functional
Staphylococcus aureus [3] = assay: Antibacterial activity against methicillin-resistant Staphylococcus aureus after 18 hrs by two-fold microbroth dilution method; assay type: functional
Mus musculus [4] = assay: Toxicity in Slc:ddY mouse assessed as induction of convulsion at 5 ug/5 uL/mouse administered intracisternally and measured over 30 mins post dose; assay type: organism-based; details: in vivo, other, 0.5 h
Staphylococcus aureus [5] = assay: Antibacterial activity against levofloxacin and methicillin-resistant Staphylococcus aureus 890325-1 after 18 hrs by two-fold microbroth dilution method; assay type: functional; details: 890325-1, 18 h
Mus musculus [6] = assay: Toxicity in Slc:ddY mouse assessed as induction of convulsion at 50 ug/5 uL/mouse administered intracisternally and measured over 30 mins post dose; assay type: organism-based; details: in vivo, other, 0.5 h
Mus musculus [7] = assay: Toxicity in Slc:ddY mouse assessed as induction of convulsion at 5 ug/5 uL/mouse administered intracisternally 30 mins after 400 mg/kg, po BPAA dosing and measured over 30 mins post dose; assay type: organism-based; details: in vivo, 0.5 h
Albumin = Albumin (Homo sapiens, UniProt P02768); assay: Binding affinity to human serum albumin after 60 mins at 37 degC by ultrafiltration-based LC-MS analysis; assay type: ADME; details: read-out: PB (converted)
Chain of Albumin (P02768 whole entry): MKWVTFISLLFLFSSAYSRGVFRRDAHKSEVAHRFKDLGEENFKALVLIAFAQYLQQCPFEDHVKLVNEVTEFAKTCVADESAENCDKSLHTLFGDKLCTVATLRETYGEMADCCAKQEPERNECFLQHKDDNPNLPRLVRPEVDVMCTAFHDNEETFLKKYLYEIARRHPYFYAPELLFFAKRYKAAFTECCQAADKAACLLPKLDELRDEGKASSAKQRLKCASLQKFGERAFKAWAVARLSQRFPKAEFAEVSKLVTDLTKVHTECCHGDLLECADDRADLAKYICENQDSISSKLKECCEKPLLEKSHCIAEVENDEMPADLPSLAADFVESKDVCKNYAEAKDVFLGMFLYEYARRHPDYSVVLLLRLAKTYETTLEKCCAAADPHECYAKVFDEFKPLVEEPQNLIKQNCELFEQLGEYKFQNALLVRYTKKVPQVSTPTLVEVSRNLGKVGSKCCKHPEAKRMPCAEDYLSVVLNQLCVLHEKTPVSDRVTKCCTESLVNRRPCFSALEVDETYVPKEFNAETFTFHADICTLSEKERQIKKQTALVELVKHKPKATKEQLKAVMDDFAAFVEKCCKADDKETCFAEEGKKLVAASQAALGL

[8] = AUC (0 to 8 hrs) in cynomolgus monkey serum at 5 mg/kg, iv; assay type: ADME, organism-based, Macaca fascicularis; design: dose 5 mg/kg, time < 8 hr, route intravenous
Mus musculus [9] = assay: Toxicity in Slc:ddY mouse assessed as induction of mortality at 15 ug/5 uL/mouse administered intracisternally and measured over 30 mins post dose; assay type: organism-based; details: in vivo, other, 0.5 h
Mus musculus [10] = assay: Toxicity in Slc:ddY mouse assessed as induction of mortality at 50 ug/5 uL/mouse administered intracisternally 30 mins after 400 mg/kg, po BPAA dosing and measured over 30 mins post dose; assay type: organism-based; details: in vivo, 0.5 h
Mus musculus [11] = assay: Toxicity in Slc:ddY mouse assessed as induction of mortality at 5 ug/5 uL/mouse administered intracisternally and measured over 30 mins post dose; assay type: organism-based; details: in vivo, other, 0.5 h
Mus musculus [12] = assay: Toxicity in Slc:ddY mouse assessed as induction of mortality at 5 ug/5 uL/mouse administered intracisternally 30 mins after 400 mg/kg, po BPAA dosing and measured over 30 mins post dose; assay type: organism-based; details: in vivo, 0.5 h
Staphylococcus aureus [13] = assay: Antibacterial activity against levofloxacin and methicillin-resistant Staphylococcus aureus 870307 after 18 hrs by two-fold microbroth dilution method; assay type: functional; details: Staphylococcus aureus, 870307, 18 h
Mus musculus [14] = assay: Toxicity in Slc:ddY mouse assessed as induction of mortality at 50 ug/5 uL/mouse administered intracisternally and measured over 30 mins post dose; assay type: organism-based; details: in vivo, other, 0.5 h
Bacillus spizizenii = assay: Antibacterial activity against Bacillus subtilis ATCC 6633 after 18 hrs by two-fold microbroth dilution method; assay type: functional; details: ATCC 6633, 18 h
Escherichia coli [15] = assay: Antibacterial activity against Escherichia coli 5-037042'98 harboring gyrase A Asp87Gly mutation after 18 hrs by two-fold microbroth dilution method; assay type: functional; details: 5-037042'98, 18 h
Mus musculus [16] = assay: Toxicity in Slc:ddY mouse assessed as induction of mortality at 15 ug/5 uL/mouse administered intracisternally 30 mins after 400 mg/kg, po BPAA dosing and measured over 30 mins post dose; assay type: organism-based; details: in vivo, 0.5 h
[17] = Metabolic stability in human microsomes at 1 uM assessed as compound remaining after 30 mins; assay type: ADME, Microsome; details: read-out: Stability
Escherichia coli [18] = assay: Antibacterial activity against quinolone-resistant Escherichia coli DNS5101 after 18 hrs by two-fold microbroth dilution method; assay type: functional; details: DNS5101, 18 h
Streptococcus pneumoniae [19] = assay: Antibacterial activity against penicillin-susceptible Streptococcus pneumoniae J41 after 18 hrs by two-fold microbroth dilution method; assay type: functional; details: J41, 18 h
[20] = AUC (0 to 24 hrs) in cynomolgus monkey serum at 5 mg/kg, po; assay type: ADME, organism-based, Macaca fascicularis; design: time < 24 hr, dose 5 mg/kg, route oral
Streptococcus pneumoniae [21] = assay: Antibacterial activity against penicillin-resistant Streptococcus pneumoniae 033806 after 18 hrs by two-fold microbroth dilution method; assay type: functional; details: Streptococcus pneumoniae, 033806, 18 h
Streptococcus pyogenes = assay: Antibacterial activity against Streptococcus pyogenes ATCC 12344 after 18 hrs by two-fold microbroth dilution method; assay type: functional; details: ATCC 12344, 18 h
[22] = Cmax in cynomolgus monkey serum at 5 mg/kg, po; assay type: ADME, organism-based, Macaca fascicularis; design: dose 5 mg/kg, route oral
[23] = Oral bioavailability in cynomolgus monkey at 5 mg/kg; assay type: ADME, organism-based, Macaca fascicularis; details: in vivo
[24] = Drug recovery in cynomolgus monkey urine at 5 mg/kg, po after 24 hrs; assay type: ADME, organism-based, Macaca fascicularis; details: read-out: Drug recovery
[25] = Half life in cynomolgus monkey serum at 5 mg/kg, po; assay type: ADME, organism-based, Macaca fascicularis
Streptococcus pneumoniae [26] = assay: as §1, with “40” for “10”, “80” for “40”; assay type: functional, organism-based
Pseudomonas aeruginosa = assay: Antibacterial activity against Pseudomonas aeruginosa PAO1 after 18 hrs by two-fold microbroth dilution method; assay type: functional; details: PAO1, 18 h
Escherichia coli [27] = assay: Antibacterial activity against Escherichia coli NIHJ after 18 hrs by two-fold microbroth dilution method; assay type: functional
Streptococcus pneumoniae [28] = assay: Antibacterial activity against penicillin-susceptible Streptococcus pneumoniae J24 after 18 hrs by two-fold microbroth dilution method; assay type: functional; details: J24, 18 h
Moraxella catarrhalis = assay: Antibacterial activity against Moraxella catarrhalis ATCC 25238 after 18 hrs by two-fold microbroth dilution method; assay type: functional; details: ATCC 25238, 18 h
Haemophilus influenzae = assay: Antibacterial activity against Haemophilus influenzae ATCC 49247 after 18 hrs by two-fold microbroth dilution method; assay type: functional; details: ATCC 49247, 18 h
Klebsiella pneumoniae = assay: Antibacterial activity against Klebsiella pneumoniae TYPE 1 after 18 hrs by two-fold microbroth dilution method; assay type: functional; details: TYPE 1, 18 h
Enterococcus faecalis = assay: Antibacterial activity against Enterococcus faecalis ATCC 19433 after 18 hrs by two-fold microbroth dilution method; assay type: functional; details: ATCC 19433, 18 h
Mus musculus [29] = assay: Toxicity in Slc:ddY mouse assessed as induction of convulsion at 15 ug/5 uL/mouse administered intracisternally 30 mins after 400 mg/kg, po BPAA dosing and measured over 30 mins post dose; assay type: organism-based; details: in vivo, 0.5 h
[30] = AUC (0 to 8 hrs) in cynomolgus monkey serum at 10 mg/kg, iv; assay type: ADME, organism-based, Macaca fascicularis; design: time < 8 hr, dose 10 mg/kg, route intravenous
[31] = Staphylococcus aureus, 18 h, read-out: MIC

## COc1c(N2CC3(CC3)[C@](C)(N)C2)c(F)cc2c(=O)c(C(=O)O)cn([C@@H]3C[C@@H]3F)c12
CYP3A4
  activity at 0.5 h, 10 µM: 78.4%
Streptococcus pneumoniae [1]
  Activity: Active
Staphylococcus aureus [2]
  MIC: 0.012 µg/mL (≈ 0.0286 µM)
Staphylococcus aureus [3]; Staphylococcus aureus, 18 h
  MIC50: 0.03 µg/mL (≈ 0.0715 µM)
  MIC90: 1 µg/mL (≈ 2.38 µM)
Staphylococcus aureus [3]; [31]
  MIC: 0.015 to 4 µg/mL (≈ 0.0358 to 9.54 µM)
Mus musculus [4]
  Activity: Non-Toxic
Staphylococcus aureus [5]
  MIC: 0.78 µg/mL (≈ 1.86 µM)
Mus musculus [6]
  Activity: Toxic
Mus musculus [7]
  Activity: Non-Toxic
Albumin
  fraction unbound at 1 h: 0.946
[8]
  AUC(0-t) at 8 h: 23800 ng·h/mL
Mus musculus [9]
  Activity: Non-Toxic
Mus musculus [10]
  Activity: Non-Toxic
Mus musculus [11]
  Activity: Non-Toxic
Mus musculus [12]
  Activity: Non-Toxic
Staphylococcus aureus [13]
  MIC: 0.78 µg/mL (≈ 1.86 µM)
Mus musculus [14]
  Activity: Toxic
Bacillus spizizenii
  MIC: 0.012 µg/mL (≈ 0.0286 µM)
Escherichia coli [15]
  MIC: 0.05 µg/mL (≈ 0.119 µM)
Mus musculus [16]
  Activity: Non-Toxic
[17]
  remaining at 0.5 h, 1 µM: 97%
Escherichia coli [18]
  MIC: 6.25 µg/mL (≈ 14.9 µM)
Streptococcus pneumoniae [19]
  MIC: 0.1 µg/mL (≈ 0.238 µM)
[20]
  AUC(0-t) at 24 h: 16900 ng·h/mL
Streptococcus pneumoniae [21]
  MIC: 0.12 µg/mL (≈ 0.286 µM)
Streptococcus pyogenes
  MIC: 0.2 µg/mL (≈ 0.477 µM)

## C[C@H]1NCc2cc(-c3ccc4c(=O)c(C(=O)O)cn(C5CC5)c4c3OC(F)F)ccc21 [GARENOXACIN]
Staphylococcus aureus [3]
  MIC: 0.008 to 8 µg/mL
Staphylococcus aureus [3]; Staphylococcus aureus, 18 h
  MIC50: 0.03 µg/mL (≈ 0.0704 µM)
  MIC90: 1 µg/mL (≈ 2.35 µM)

## COc1c(N2C[C@@H]3CCOC[C@@]3(N)C2)c(F)cc2c(=O)c(C(=O)O)cn([C@@H]3C[C@@H]3F)c12.CS(=O)(=O)O
[22]
  Cmax: 3700 ng/mL
[23]
  bioavailability: 75%
[24]
  dose excreted at 24 h: 64.1%
[20]
  AUC(0-t) at 24 h: 19800 ng·h/mL
[25]
  half-life: 4.6 h

## COc1c(N2C[C@@H]3CCCN[C@@H]3C2)c(F)cc2c(=O)c(C(=O)O)cn(C3CC3)c12
Streptococcus pneumoniae [26]
  Activity: Active

## N[C@@]12CCCC[C@@H]1CNC2
Staphylococcus aureus [2]
  MIC: 0.006 µg/mL (≈ 0.0428 µM)
Pseudomonas aeruginosa
  MIC: 1.56 µg/mL (≈ 11.1 µM)
Escherichia coli [27]
  MIC: 0.025 µg/mL (≈ 0.178 µM)
Staphylococcus aureus [5]
  MIC: 1.56 µg/mL (≈ 11.1 µM)
Streptococcus pneumoniae [28]
  MIC: 0.05 µg/mL (≈ 0.357 µM)
Staphylococcus aureus [13]
  MIC: 0.39 µg/mL (≈ 2.78 µM)
Moraxella catarrhalis
  MIC: 0.1 µg/mL (≈ 0.713 µM)
Bacillus spizizenii
  MIC: 0.012 µg/mL (≈ 0.0856 µM)
Escherichia coli [15]
  MIC: 0.1 µg/mL (≈ 0.713 µM)
Haemophilus influenzae
  MIC: 0.025 µg/mL (≈ 0.178 µM)
Klebsiella pneumoniae
  MIC: 0.1 µg/mL (≈ 0.713 µM)
Escherichia coli [18]
  MIC: > 6.25 µg/mL
Streptococcus pneumoniae [19]
  MIC: 0.05 µg/mL (≈ 0.357 µM)
Enterococcus faecalis
  MIC: 0.2 µg/mL (≈ 1.43 µM)
Streptococcus pyogenes
  MIC: 0.1 µg/mL (≈ 0.713 µM)

## COc1c(N2C[C@@H]3CCCN[C@@H]3C2)c(F)cc2c(=O)c(C(=O)O)cn(C3CC3)c12.Cl.O [MOXIFLOXACIN HYDROCHLORIDE HYDRATE]
[8]
  AUC(0-t) at 8 h: 10900 ng·h/mL
[20]
  AUC(0-t) at 24 h: 6630 ng·h/mL

## C[C@H]1COc2c(N3CCN(C)CC3)c(F)cc3c(=O)c(C(=O)O)cn1c23.C[C@H]1COc2c(N3CCN(C)CC3)c(F)cc3c(=O)c(C(=O)O)cn1c23.O [LEVOFLOXACIN]
Staphylococcus aureus [2]
  MIC: 0.1 µg/mL
Staphylococcus aureus [3]; Staphylococcus aureus, 18 h
  MIC50: 0.5 µg/mL
  MIC90: 8 µg/mL
Staphylococcus aureus [3]; [31]
  MIC: 0.25 to 64 µg/mL
Mus musculus [4]
  Activity: Non-Toxic
Staphylococcus aureus [5]
  MIC: 6.25 µg/mL
Albumin
  fraction unbound at 1 h: 0.86
Mus musculus [29]
  Activity: Toxic
[30]
  AUC(0-t) at 8 h: 15500 ng·h/mL
Bacillus spizizenii
  MIC: 0.05 µg/mL
Escherichia coli [15]
  MIC: 0.1 µg/mL
[17]
  remaining at 0.5 h, 1 µM: 95%
Escherichia coli [18]
  MIC: > 6.25 µg/mL
Streptococcus pneumoniae [19]
  MIC: 1.56 µg/mL
[20]
  AUC(0-t) at 24 h: 15200 ng·h/mL
Streptococcus pneumoniae [21]
  MIC: 1.56 µg/mL
Streptococcus pyogenes
  MIC: 0.39 µg/mL
